Measurements: ChEMBL document CHEMBL1147228, “Dammarane-type triterpenes from the Brazilian medicinal plant Cordia multispicata” (J Nat Prod, 2003)

Experiment: Antiandrogenic activity assessed as inhibition of testosterone 5alpha reductase at 100 ug/mL
Set-up: scale not given: the % may be the effect or the level left

Row | SMILES | Activity [%]
1 | C=C(C)C(O)C(O)/C=C(\C)[C@H]1CC[C@]2(C)[C@@H]1C[C@@H](O)[C@@H]1[C@]34CC[C@](O)(OC3)C(C)(C)[C@@H]4CC[C@]12C (stereo not given in full) | 18
2 | COC(C)(C)C(O)C(O)/C=C(\C)[C@H]1CC[C@]2(C)[C@@H]1C[C@@H](O)[C@@H]1[C@]34CC[C@](O)(OC3)C(C)(C)[C@@H]4CC[C@]12C (stereo not given in full) | 19

Now from value to compound:

Row | Activity [%] | SMILES
3 | -2.09 | C/C(=C\C(O)C(O)C(C)(C)O)[C@H]1CC[C@]2(C)[C@@H]1C[C@@H](O)[C@@H]1[C@]34CC[C@](O)(OC3)C(C)(C)[C@@H]4CC[C@]12C (stereo not given in full)
4 | 43.1 | C/C(=C\C(O)C1OC1(C)C)[C@H]1CC[C@]2(C)[C@@H]1C[C@@H](O)[C@@H]1[C@@]3(C)CCC(=O)C(C)(C)[C@@H]3CC[C@]12C (stereo not given in full)
5 | 15.1 | C/C(=C\C(O)C1OC1(C)C)[C@H]1CC[C@]2(C)[C@@H]1C[C@@H](O)[C@@H]1[C@]34CC[C@](O)(OC3)C(C)(C)[C@@H]4CC[C@]12C (stereo not given in full)
